Source: PubChem BioAssay AID248 (DTP/NCI, 2004)
Where “and” joins values, the source holds several entries; their conditions need not be identical. Identical values can stand only once. Inconclusive results and toxic doses are left out. Rule as the data show it: active = T/C of 150% or more; inactive = T/C below 125%.

Test system: L1210 leukemia ip in BDF1 mice, survival T/C
Assay: NCI In Vivo Anticancer Drug Screen. Data for tumor model L1210 Leukemia (intraperitoneal) in B6D2F1 (BDF1) mice
Details: endpoint: mean survival time, higher = longer survival
How it was run: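 Ratio derived from survival: compound-dosed mice over vehicle-dosed mice, all bearing a transplantable tumor.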

[1] = dose: 100.0 mg/kg/injection, schedule: Q04DX003 (ip), vehicle: saline
[2] = dose: 200.0 mg/kg/injection, schedule: Q04DX003 (ip), vehicle: saline
[3] = dose: 100.0 mg/kg/injection, schedule: Q04DX003 (ip), vehicle: Klucel (hydroxypropylcellulose) (HPC)
[4] = dose: 200.0 mg/kg/injection, schedule: Q04DX003 (ip), vehicle: Klucel (hydroxypropylcellulose) (HPC)
[5] = dose: 400.0 mg/kg/injection, schedule: Q04DX003 (ip), vehicle: Klucel (hydroxypropylcellulose) (HPC)
[6] = dose: 100.0 mg/kg/injection, schedule: Q01DX009 (ip), vehicle: saline with Tween-80
[7] = dose: 100.0 mg/kg/injection, schedule: Q04DX003 (ip), vehicle: saline with Tween-80
[8] = dose: 200.0 mg/kg/injection, schedule: Q01DX009 (ip), vehicle: saline with Tween-80
[9] = dose: 200.0 mg/kg/injection, schedule: Q04DX003 (ip), vehicle: saline with Tween-80
[10] = dose: 400.0 mg/kg/injection, schedule: Q04DX003 (ip), vehicle: saline with Tween-80
[11] = dose: 100.0 mg/kg/injection, schedule: Q01DX001 (ip), vehicle: saline
[12] = dose: 200.0 mg/kg/injection, schedule: Q01DX001 (ip), vehicle: saline
[13] = dose: 400.0 mg/kg/injection, schedule: Q04DX003 (ip), vehicle: saline
[14] = dose: 100.0 mg/kg/injection, schedule: Q01DX009 (ip), vehicle: Klucel (hydroxypropylcellulose) (HPC)
[15] = dose: 200.0 mg/kg/injection, schedule: Q01DX009 (ip), vehicle: Klucel (hydroxypropylcellulose) (HPC)
[16] = dose: 400.0 mg/kg/injection, schedule: Q01DX009 (ip), vehicle: saline with Tween-80

Measured: T/C

CN1CC(COC(=O)CCc2ccc(N(CCCl)CCCl)cc2)C=C2c3cccc4[nH]cc(c34)C[C@H]21 (some centres undefined)
inactive: dose: 3.12 mg/kg/injection, schedule: Q01DX009 (ip), vehicle: saline 104 % of control | dose: 6.25 mg/kg/injection, schedule: Q01DX009 (ip), vehicle: saline 108 % of control | dose: 12.5 mg/kg/injection, schedule: Q01DX009 (ip), vehicle: saline 110 % of control and 114 % of control | dose: 25.0 mg/kg/injection, schedule: Q01DX009 (ip), vehicle: saline 117 % of control | dose: 25.0 mg/kg/injection, schedule: Q04DX003 (ip), vehicle: saline 93 % of control and 107 % of control | dose: 50.0 mg/kg/injection, schedule: Q01DX009 (ip), vehicle: saline 117 % of control | dose: 50.0 mg/kg/injection, schedule: Q04DX003 (ip), vehicle: saline 109 % of control and 117 % of control | dose: 100.0 mg/kg/injection, schedule: Q01DX009 (ip), vehicle: saline 91 % of control | [1] 112 % of control | [2] 124 % of control

O=C(NCCCl)Nc1ccc2c(c1)CCC2
inactive: [3] 94 % of control and 107 % of control | [4] 103 % of control and 90 % of control | [5] 92 % of control

CCC(O)(CC(=O)O)c1ccccc1 (centres undefined)
inactive: [6] 91 % of control | [7] 104 % of control | [8] 96 % of control | [9] 104 % of control | [10] 105 % of control

CC12CCC3C(CC=C4CC(O)CCC43C)C1C/C(=C\c1ccccc1)C2=O (centres undefined)
inactive: dose: 100.0 mg/kg/injection, schedule: Q01DX001 (ip), vehicle: saline with Tween-80 93 % of control | dose: 200.0 mg/kg/injection, schedule: Q01DX001 (ip), vehicle: saline with Tween-80 93 % of control | dose: 400.0 mg/kg/injection, schedule: Q01DX001 (ip), vehicle: saline with Tween-80 92 % of control

COc1cc(OC)c(C(=O)c2ccccc2N)c(OC)c1
inactive: [7] 89 % of control | [9] 87 % of control

O=C1c2ccccc2C(=O)N1C/C=C/CN1C(=O)c2ccccc2C1=O
inactive: [11] 95 % of control | [1] 101 % of control | [12] 98 % of control | [2] 104 % of control | dose: 400.0 mg/kg/injection, schedule: Q01DX001 (ip), vehicle: saline 91 % of control | [13] 102 % of control

COc1cc2c(c(OC)c1OC)-c1ccc(=O)c(OC)cc1[C@@H](NC(=O)CCl)CC2
inactive: dose: 100.0 mg/kg/injection, schedule: Q01DX001 (ip), vehicle: Klucel (hydroxypropylcellulose) (HPC) 94 % of control | [14] 103 % of control | dose: 200.0 mg/kg/injection, schedule: Q01DX001 (ip), vehicle: Klucel (hydroxypropylcellulose) (HPC) 98 % of control | [15] 103 % of control | dose: 400.0 mg/kg/injection, schedule: Q01DX001 (ip), vehicle: Klucel (hydroxypropylcellulose) (HPC) 105 % of control

O=[N+]([O-])c1cccc(OCCOc2ccccc2)c1
inactive: dose: 25.0 mg/kg/injection, schedule: Q01DX009 (ip), vehicle: saline with Tween-80 116 % of control | dose: 33.0 mg/kg/injection, schedule: Q01DX009 (ip), vehicle: saline with Tween-80 98 % of control | dose: 75.0 mg/kg/injection, schedule: Q01DX009 (ip), vehicle: saline with Tween-80 96 % of control | [6] 102 % of control and 86 % of control | [8] 102 % of control | [16] 102 % of control

CCOC(=O)C1(C(=O)OCC)CCC(O)N1C(=O)Cc1ccccc1[N+](=O)[O-] (centres undefined)
inactive: [3] 100 % of control | [4] 103 % of control | [5] 99 % of control

CCOC(=O)NP(=O)(NC1CCCCC1)NC1CCCCC1
inactive: dose: 50.0 mg/kg/injection, schedule: Q01DX001 (ip), vehicle: alcohol 92 % of control | dose: 100.0 mg/kg/injection, schedule: Q01DX001 (ip), vehicle: alcohol 96 % of control | dose: 200.0 mg/kg/injection, schedule: Q01DX001 (ip), vehicle: alcohol 90 % of control

COc1ccc(OC)c(NC(=O)Nc2ccc([As](=O)(O)O)cc2)c1
inactive: dose: 50.0 mg/kg/injection, schedule: Q04DX003 (ip), vehicle: Klucel (hydroxypropylcellulose) (HPC) 96 % of control | [3] 100 % of control | [4] 93 % of control and 88 % of control

CC1(C)COCOC1
inactive: dose: 50.0 mg/kg/injection, schedule: Q01DX009 (ip), vehicle: acetone 95 % of control | dose: 100.0 mg/kg/injection, schedule: Q01DX009 (ip), vehicle: acetone 98 % of control | dose: 200.0 mg/kg/injection, schedule: Q01DX009 (ip), vehicle: acetone 88 % of control

Cc1ccn(C)c(=O)c1
inactive: [1] 105 % of control | [2] 103 % of control | [13] 102 % of control

Cn1cnc2cnc([N+](C)(C)C)nc21
inactive: [1] 103 % of control | [2] 114 % of control

COC1OCC(OS(C)(=O)=O)C(OS(C)(=O)=O)C1OS(C)(=O)=O (centres undefined)
inactive: [7] 97 % of control and 96 % of control | [9] 97 % of control and 98 % of control | [10] 100 % of control and 98 % of control

O=C1SC2(CCCCC2)SC1=O
inactive: dose: 50.0 mg/kg/injection, schedule: Q01DX009 (ip), vehicle: saline with Tween-80 110 % of control | [6] 113 % of control | [7] 110 % of control | [9] 100 % of control

Cc1ccc(N2CCN(C(C)(C)C#N)CC2)cc1
inactive: [11] 102 % of control | [12] 98 % of control

CCOC(=O)c1ccc(NC(=S)Nc2ccccc2S)cc1
inactive: dose: 25.0 mg/kg/injection, schedule: Q04DX002 (ip), vehicle: saline with Tween-80 101 % of control | dose: 50.0 mg/kg/injection, schedule: Q04DX002 (ip), vehicle: saline with Tween-80 101 % of control | dose: 100.0 mg/kg/injection, schedule: Q04DX002 (ip), vehicle: saline with Tween-80 93 % of control and 87 % of control

Cc1ccc([N+](=O)[O-])cc1NC(=O)Nc1ccccc1F
inactive: [14] 89 % of control | [15] 92 % of control | dose: 400.0 mg/kg/injection, schedule: Q01DX009 (ip), vehicle: Klucel (hydroxypropylcellulose) (HPC) 87 % of control

CCOC(=O)c1c(OC)cc2n(c1=O)Cc1cc3ccccc3nc1-2
inactive: dose: 150.0 mg/kg/injection, schedule: Q01DX009 (ip), vehicle: saline with Tween-80 86 % of control | dose: 225.0 mg/kg/injection, schedule: Q01DX009 (ip), vehicle: saline with Tween-80 89 % of control | dose: 335.0 mg/kg/injection, schedule: Q01DX009 (ip), vehicle: saline with Tween-80 89 % of control

O=C(Nc1ccccc1F)Oc1ccc([N+](=O)[O-])cc1
inactive: dose: 25.0 mg/kg/injection, schedule: Q01DX009 (ip), vehicle: Klucel (hydroxypropylcellulose) (HPC) 106 % of control | dose: 50.0 mg/kg/injection, schedule: Q01DX009 (ip), vehicle: Klucel (hydroxypropylcellulose) (HPC) 95 % of control | [14] 94 % of control and 112 % of control

COC(=O)C1CCC2c3ccccc3C(C1)c1ccccc12 (centres undefined)
inactive: [6] 97 % of control | [7] 101 % of control | [8] 95 % of control | [9] 95 % of control | [16] 94 % of control | [10] 93 % of control
